The text below walks through data of patent US5332740A, “DC-89 derivatives” (priority 1990, dated 1994).

The test system of one data set is ddY-strain male mice. The data set can be described thus: Acute Toxicity Test. The data set is classed as in vivo. The conditions noted are these: intraperitoneal; mortality observed for 14 days after the administration. Here is the method:
A test compound was intraperitoneally administered to ddY-strain male mice each weighing 20±1 g. MLD (the minimum lethal dose) was determined by observing the mortality for 14 days after the administration.

The test system of another data set is various bacteria. To be noted: against various bacteria; cited from earlier work.
The test system of another data set is melanoma B-16. To be noted: against melanoma B-16; cited from earlier work.
The test system of another data set is Sarcoma 180 tumor. The data set can be described thus: Therapeutic Effect against Sarcoma 180 Tumor. Format: in vivo, male ddY-strain mice. The conditions noted are these: single intravenous, average tumor volume treated/control, seven days after implantation. Here is the method:
Therapeutic Effect against Sarcoma 180 Tumor
Five male ddY-strain mice each having a weight of 18 to 20 g were used for each group as test animals, and 5×10^5 Sarcoma 180 tumor cells were implanted subcutaneously into the animals at the axilla. One day after the implantation, 0.2 ml of physiological saline containing Compound (I) at the concentration indicated in Table 3 was intravenously administered to each mouse. T/C [T: average tumor volume (mm^3) of the group treated with the test compound, C: that of the control group which received an intravenous administration of 0.2 ml of physiological saline] was determined seven days after the implantation.

Consider `COC(=O)C1(C)Nc2c(OC(=O)N3CCC(N4CCCCC4)CC3)cc3c(c2C1=O)CC(Br)CN3C(=O)c1cc2cc(OC)c(OC)c(OC)c2[nH]1` (stereo not shown) [Compound 5], for which the “Acute Toxicity (MLD), minimum lethal dose” value (from here on “Acute Toxicity (MLD)”) in the data set on ddY-strain male mice is given as 2.0 mg/kg.
Consider `COC(=O)C1(C)Nc2c(O)cc3c(c2C1=O)C(CBr)CN3C(=O)c1cc2cc(OC)c(OC)c(OC)c2[nH]1` (stereo not shown) [DC-89B2], for which, in the data set with various bacteria, the antibacterial activity result is “exhibit an antibacterial activity against various bacteria”. In addition, the anti-tumor activity result in the data set with melanoma B-16 was “show an anti-tumor activity against melanoma B-16”.
On to `COC(=O)C1(C)Nc2c(O)cc3c(c2C1=O)CC(Br)CN3C(=O)c1cc2cc(OC)c(OC)c(OC)c2[nH]1` (stereo not shown) [DC-89B1], for which, in the data set with various bacteria, the antibacterial activity result is on record as “exhibit an antibacterial activity against various bacteria”. The anti-tumor activity result in the data set with melanoma B-16 was “show an anti-tumor activity against melanoma B-16”.
For `COC(=O)C1(C)Nc2c(OC(=O)N3CCN(CCN)CC3)cc3c(c2C1=O)CC(Br)CN3C(=O)c1cc2cc(OC)c(OC)c(OC)c2[nH]1` (stereo not shown) [Compound 3], the T/C is 0.25 in the data set with Sarcoma 180 tumor (dose 0.50 mg/kg) and 0.094 in the data set on Sarcoma 180 tumor (dose 1.0 mg/kg, 1 mg/kg). Further, the “Acute Toxicity (MLD)” value in the data set with ddY-strain male mice worked out at 2.0 mg/kg.
In the case of `COC(=O)C1(C)Nc2c(OC(=O)N3CCC(N4CCCCC4)CC3)cc3c(c2C1=O)CC(Br)CN3C(=O)c1cc2cc(OC)c(OC)c(OC)c2[nH]1` (stereo not shown) [Compound 6], the “Acute Toxicity (MLD)” value with ddY-strain male mice is given as 4.0 mg/kg.
As for `COC(=O)C1(C)NC2=C(C1=O)C13CC1CN(C(=O)c1cc4cc(OC)c(OC)c(OC)c4[nH]1)C3=CC2=O` (stereo not shown) [DC-88A], the antibacterial activity entry in the data set with various bacteria was “shows an antibacterial activity against a variety of bacteria”. The anti-tumor activity entry with melanoma B-16 is “exhibits an anti-tumor activity against melanoma B-16”.
As for `COc1cc2cc(C(=O)N3CC(Cl)Cc4c3cc(O[Si](C)(C)C(C)(C)C)c3[nH]c(C)cc43)[nH]c2c(OC)c1OC` (stereo not shown) [Compound 11], the “Acute Toxicity (MLD)” value with ddY-strain male mice is recorded as more than 8.0 mg/kg.
`COC(=O)c1c(C)[nH]c2c(O[Si](C)(C)C(C)(C)C)cc3c(c12)CC(Br)CN3C(=O)c1cc2cc(OC)c(OC)c(OC)c2[nH]1` (stereo not shown) [Compound 7]: the T/C in the data set with Sarcoma 180 tumor (dose 1.0 mg/kg) turned out to be 0.13; with Sarcoma 180 tumor (dose 2.0 mg/kg), 0.025. The “Acute Toxicity (MLD)” value with ddY-strain male mice turned out to be 4.0 mg/kg.
In the data set on Sarcoma 180 tumor (dose 1.0 mg/kg, 1 mg/kg), `COC(=O)C1(C)Nc2c(OC(=O)N3CCN(CCN)CC3)cc3c(c2C1=O)CC(Br)CN3C(=O)c1cc2cc(OC)c(OC)c(OC)c2[nH]1` (stereo not shown) [Compound 4] gave a T/C of 0.047. Also, the “Acute Toxicity (MLD)” value with ddY-strain male mice was 2.0 mg/kg.
As for `COC(=O)c1c(C)[nH]c2c(O[Si](C)(C)C(C)(C)C)cc3c(c12)CC(Cl)CN3C(=O)c1cc2cc(OC)c(OC)c(OC)c2[nH]1` (stereo not shown) [Compound 10], in the data set with ddY-strain male mice, the “Acute Toxicity (MLD)” value is recorded as more than 8.0 mg/kg.
For `COC(=O)C1(C)Nc2c(O)cc3c(c2C1=O)C(CCl)CN3C(=O)c1cc2cc(OC)c(OC)c(OC)c2[nH]1` (stereo not shown) [DC-89A2], the antibacterial activity entry in the data set on various bacteria is “exhibit an antibacterial activity against various bacteria”. Further, the anti-tumor activity entry with melanoma B-16 was “show an anti-tumor activity against melanoma B-16”.
As to `COc1cc2cc(C(=O)N3CC(Br)Cc4c3cc(O[Si](C)(C)C(C)(C)C)c3[nH]c(C)cc43)[nH]c2c(OC)c1OC` (stereo not shown) [Compound 8], the T/C with Sarcoma 180 tumor (dose 2.0 mg/kg) stood at 0.19. Besides, the “Acute Toxicity (MLD)” value with ddY-strain male mice stood at 8.0 mg/kg.
In the case of `COC(=O)C1(C)Nc2c(OC(=O)N3CCN(C)CC3)cc3c(c2C1=O)CC(Cl)CN3C(=O)c1cc2cc(OC)c(OC)c(OC)c2[nH]1` (stereo not shown) [Compound 14], in the data set on ddY-strain male mice, the “Acute Toxicity (MLD)” value is reported as more than 16 mg/kg.
With `COC(=O)C1(C)Nc2c(O)cc3c(c2C1=O)CC(Cl)CN3C(=O)c1cc2cc(OC)c(OC)c(OC)c2[nH]1` (stereo not shown) [DC-89A1], the antibacterial activity result with various bacteria is listed as “exhibit an antibacterial activity against various bacteria”. For the same compound, the anti-tumor activity entry in the data set on melanoma B-16 was “show an anti-tumor activity against melanoma B-16”.
As for `COC(=O)C1(C)Nc2c(OC(=O)N3CCN(C)CC3)cc3c(c2C1=O)CC(Br)CN3C(=O)c1cc2cc(OC)c(OC)c(OC)c2[nH]1` (stereo not shown) [Compound 2], the T/C in the data set with Sarcoma 180 tumor (dose 1.0 mg/kg) was determined as 0.19; in the data set with Sarcoma 180 tumor (dose 2.0 mg/kg), 0.083. Moreover, the “Acute Toxicity (MLD)” value in the data set on ddY-strain male mice is 5.2 mg/kg.
In the case of `COc1cc2cc(C(=O)N3CC(Br)Cc4c3cc(OC(=O)N(C)C)c3[nH]c(C)cc43)[nH]c2c(OC)c1OC` (stereo not shown) [Compound 9], the T/C in the data set on Sarcoma 180 tumor (dose 0.25 mg/kg) is recorded as 0.15; in the data set with Sarcoma 180 tumor (dose 0.50 mg/kg), 0.068. The “Acute Toxicity (MLD)” value in the data set with ddY-strain male mice is given as 0.50 mg/kg.
